According to PubChem BioAssay (NCI):
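All cell lines were grown in 96-well plates and treated with compound for 48 hours. GI50 is the concentration that inhibits growth by half. The concentration for full growth arrest is given as TGI.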

Legend:
Test in all cases: inhibition of tumour cell growth, NCI panel, 48 h
[1] = test system: T-47D breast
[2] = test system: UACC-62 melanoma
[3] = test system: NCI/ADR-RES ovarian
[4] = test system: SW-620 colon
[5] = test system: OVCAR-8 ovarian
[6] = test system: 786-0 renal
[7] = test system: SK-MEL-2 melanoma
[8] = test system: M14 melanoma
[9] = test system: SF-268 CNS
[10] = test system: MDA-MB-231 breast
[11] = test system: IGROV1 ovarian
[12] = test system: PC-3 prostate
[13] = test system: OVCAR-4 ovarian
[14] = test system: DU-145 prostate
[15] = test system: COLO 205 colon
[16] = test system: NCI-H460 lung
[17] = test system: HCC-2998 colon
[18] = test system: HS 578T breast
[19] = test system: A549 NSCLC
[20] = test system: HOP-92 NSCLC
[21] = test system: HCT-15 colon
[22] = test system: BT-549 breast
[23] = test system: U251 CNS
[24] = test system: SF-295 CNS
[25] = test system: MCF7 breast
[26] = test system: RPMI-8226 leukemia
[27] = test system: OVCAR-5 ovarian
[28] = test system: SR leukemia
[29] = test system: NCI-H226 lung
[30] = test system: HL-60(TB) leukemia
[31] = test system: SK-MEL-5 melanoma
[32] = test system: RXF 393 renal
[33] = test system: TK-10 renal
[34] = test system: UO-31 renal
[35] = test system: MOLT-4 leukemia
[36] = test system: SN12C renal
[37] = test system: NCI-H522 lung
[38] = test system: CCRF-CEM leukemia
[39] = test system: HCT-116 colon
[40] = test system: LOX IMVI melanoma
[41] = test system: CAKI-1 renal
[42] = test system: MALME-3M melanoma
[43] = test system: EKVX NSCLC
[44] = test system: SNB-75 CNS
[45] = test system: SK-OV-3 ovarian
[46] = test system: KM12 colon
[47] = test system: SK-MEL-28 melanoma
[48] = test system: MDA-MB-435
[49] = test system: A498 renal
[50] = test system: K-562 leukemia
[51] = test system: SNB-19 CNS
[52] = test system: UACC-257 melanoma
[53] = test system: SF-539 CNS
[54] = test system: HOP-62 NSCLC
[55] = test system: HT29 colon
[56] = test system: ACHN renal

CNC(=O)c1cc(N2CCc3cc(NC(=O)Nc4ccc(N5CCOCC5)c(C(F)(F)F)c4)ccc32)ccn1
GI50 [1]: 908 nM
TGI [1]: 9030 nM
GI50 [2]: 776 nM
TGI [2]: 1970 nM
GI50 [3]: 2160 nM
TGI [3]: > 33300 nM
GI50 [4]: 2340 nM
TGI [4]: > 33300 nM
GI50 [5]: 1800 nM
TGI [5]: > 33300 nM
GI50 [6]: 1440 nM
TGI [6]: 18900 nM
GI50 [7]: 1130 nM
TGI [7]: 5730 nM
GI50 [8]: 1410 nM
TGI [8]: 25000 nM
GI50 [9]: 5700 nM
TGI [9]: > 33300 nM
GI50 [10]: 2470 nM
TGI [10]: > 33300 nM
GI50 [11]: 1430 nM
TGI [11]: > 33300 nM
GI50 [12]: 1170 nM
TGI [12]: > 33300 nM
GI50 [13]: 1690 nM
TGI [13]: > 33300 nM
GI50 [14]: 3040 nM
TGI [14]: > 33300 nM
GI50 [15]: 1150 nM
TGI [15]: 22000 nM
GI50 [16]: 1210 nM
TGI [16]: 27300 nM
GI50 [17]: 2510 nM
TGI [17]: > 33300 nM
GI50 [18]: 779 nM
TGI [18]: 2940 nM
GI50 [19]: 1620 nM
TGI [19]: > 33300 nM
GI50 [20]: 899 nM
TGI [20]: 5540 nM
GI50 [21]: 1170 nM
TGI [21]: > 33300 nM
GI50 [22]: 1040 nM
TGI [22]: 2750 nM
GI50 [23]: 1320 nM
TGI [23]: > 33300 nM
GI50 [24]: 689 nM
TGI [24]: 2550 nM
GI50 [25]: 1560 nM
TGI [25]: > 33300 nM
GI50 [26]: 614 nM
TGI [26]: 2500 nM
GI50 [27]: 4950 nM
TGI [27]: > 33300 nM
GI50 [28]: 946 nM
TGI [28]: > 33300 nM
GI50 [29]: 1330 nM
TGI [29]: > 33300 nM
GI50 [30]: 904 nM
TGI [30]: 5500 nM
GI50 [31]: 1100 nM
TGI [31]: 4720 nM
GI50 [32]: 775 nM
TGI [32]: 2110 nM
GI50 [33]: 11300 nM
TGI [33]: > 33300 nM
GI50 [34]: 1210 nM
TGI [34]: 25100 nM
GI50 [35]: 1210 nM
TGI [35]: 31100 nM
GI50 [36]: 1260 nM
TGI [36]: > 33300 nM
GI50 [37]: 1290 nM
TGI [37]: 16300 nM
GI50 [38]: 1470 nM
TGI [38]: > 33300 nM
GI50 [39]: 1170 nM
TGI [39]: 10500 nM
GI50 [40]: 1510 nM
TGI [40]: 17900 nM
GI50 [41]: 3840 nM
TGI [41]: > 33300 nM
GI50 [42]: 2130 nM
TGI [42]: > 33300 nM
GI50 [43]: 4160 nM
TGI [43]: > 33300 nM
GI50 [44]: 1140 nM
TGI [44]: 13800 nM
GI50 [45]: 7160 nM
TGI [45]: > 33300 nM
GI50 [46]: 293 nM
TGI [46]: > 33300 nM
GI50 [47]: 3520 nM
TGI [47]: > 33300 nM
GI50 [48]: 2710 nM
TGI [48]: > 33300 nM
GI50 [49]: 1690 nM
TGI [49]: 25100 nM
GI50 [50]: 996 nM
TGI [50]: > 33300 nM
GI50 [51]: 3870 nM
TGI [51]: > 33300 nM
GI50 [52]: 3230 nM
TGI [52]: > 33300 nM
GI50 [53]: 600 nM
TGI [53]: > 33300 nM
GI50 [54]: 2560 nM
TGI [54]: 25000 nM
GI50 [55]: 1640 nM
TGI [55]: > 33300 nM
GI50 [56]: 1900 nM
TGI [56]: > 33300 nM
